For one assay, the system named is HepG2. As to the kind of experiment: Antiproliferative activity against human HepG2 cells assessed as cell viability rate at 5 uM incubated for 72 hrs by MTT assay relative to control. It counts as functional. (In general: Formazan colour is commonly taken as a measure of viable cells.)
For assay [1], the system named is MDA-MB-231. As to the kind of experiment: Antiproliferative activity against human MDA-MB-231 cells assessed as cell viability rate at 5 uM incubated for 72 hrs by MTT assay relative to control. The class given is functional.
Assay [2] has as its target T1, Retinoic acid receptor RXR-alpha (Homo sapiens) (UniProt P19793).
T1 sequence (whole entry): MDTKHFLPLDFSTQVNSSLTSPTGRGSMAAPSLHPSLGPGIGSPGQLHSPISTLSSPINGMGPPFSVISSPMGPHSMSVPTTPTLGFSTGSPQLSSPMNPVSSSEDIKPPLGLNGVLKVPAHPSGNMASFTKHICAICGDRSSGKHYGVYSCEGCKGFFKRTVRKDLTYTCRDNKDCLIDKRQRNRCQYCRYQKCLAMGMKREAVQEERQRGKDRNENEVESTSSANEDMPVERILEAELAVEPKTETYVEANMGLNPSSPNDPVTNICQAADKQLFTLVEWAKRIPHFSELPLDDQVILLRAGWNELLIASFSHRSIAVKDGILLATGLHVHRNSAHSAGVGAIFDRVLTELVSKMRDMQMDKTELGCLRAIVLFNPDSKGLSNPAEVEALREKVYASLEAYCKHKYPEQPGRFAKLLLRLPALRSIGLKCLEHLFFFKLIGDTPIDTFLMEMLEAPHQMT
Briefly: Antagonist activity at RXRalpha (unknown origin) transfected in human HeLa cells assessed as inhibition of CD3254- induced receptor transactivation by measuring remaining luciferase activity at 1 uM incubated for 24 hrs by dual luciferase reporter assay. It counts as cell-based. The note with it: filed as antagonist.

Another assay has as its system A549. As to the kind of experiment: Antiproliferative activity against human A549 cells assessed as cell viability rate at 5 uM incubated for 72 hrs by MTT assay relative to control. The class given is functional.
Assay [3] has as its system MDA-MB-231. Briefly: Antiproliferative activity against human MDA-MB-231 cells assessed as inhibition of cell proliferation incubated for 72 hrs by MTT assay. The class given is functional, cell-based. The note with it: MDA-MB-231, 72 h.
For assay [4], the target named is T1, Retinoic acid receptor RXR-alpha (Homo sapiens). Briefly: Antagonist activity at RXRalpha (unknown origin) transfected in human HeLa cells assessed as inhibition of CD3254- induced receptor transactivation by measuring remaining luciferase activity at 1 uM incubated for 24 hrs by dual luciferase reporter assay relative to control. The class given is cell-based. The note with it: filed as antagonist. (A reporter such as luciferase makes a cellular process visible.)

The source of these data is ChEMBL document CHEMBL5321216, “Discovery of bipyridine amide derivatives targeting pRXRα-PLK1 interaction for anticancer therapy” (Eur J Med Chem, 2023).

Active and inactive are the calls of the source. The rule behind the calls is not given here. Bounds are passed on as bounds.

The IC50 is the concentration that gives 50% inhibition.

With `Cc1cccc(CC(=O)Nc2cc(-c3ccnc(N4CCC(CO)CC4)c3)ccn2)c1`, the results for the Activity with HepG2, in the assay with MDA-MB-231 [1] and in the assay with A549 were 60.73%, 46.82% and 73.92%, respectively. The inhibition result in assay [2] was “Active”.
For `COc1cccc(CC(=O)Nc2cc(-c3ccnc(N4CCC(CO)CC4)c3)ccn2)c1`, in that order: 92.25%, 72.35%, 94.17% and “Active”.
For `O=C(/C=C/c1cccc(F)c1)Nc1ccc(-c2ccnc(N3CCC(CO)CC3)c2)cn1`, the Activity turned out to be 31.25% in the assay on HepG2, 51.3% with MDA-MB-231 [1] and 42.31% in the assay on A549.
With `O=C(Cc1cccc(F)c1)Nc1cc(-c2ccnc(N3CCC(CO)CC3)c2)ccn1`, the figures for the Activity in the assay on HepG2, in the assay with MDA-MB-231 [1] and in the assay with A549 were 88.95%, 82.84% and 98.62%, respectively. In assay [2], the inhibition result is “Active”.
Consider `COc1cccc(CC(=O)Nc2ccc(-c3ccnc(N4CCC(C)CC4)c3)cn2)c1`, for which, in the assay on MDA-MB-231 [3], the IC50 amounted to 3.19 µM. Besides, the Activity in the assay on HepG2 was 55.19%; with MDA-MB-231 [1], 47.74%; in the assay with A549, 80.24%. Besides, the inhibition entry in assay [2] is “Active”.
Consider `COc1cccc(CC(=O)Nc2ccc(-c3ccnc(N4CCC(CO)CC4)c3)cn2)c1`, for which, in the assay with MDA-MB-231 [3], the half-inhibitory concentration (IC50) was 7.36 µM. Further, the Activity is < 50% in assay [4], 27.89% with HepG2, 34.49% in the assay with MDA-MB-231 [1] and 77.14% in the assay on A549.
In the case of `Cc1cccc(CC(=O)Nc2ccc(-c3ccnc(N4CCN(C)CC4)c3)cn2)c1`, the Activity in assay [4] is < 50%; in the assay with HepG2, 86.83%; with MDA-MB-231 [1] it was 112.17%; in the assay with A549 it was 126.23%.
Regarding `O=C(/C=C/c1ccccc1)Nc1ccc(-c2ccnc(N3CCC(CO)CC3)c2)cn1`, the Activity with HepG2 is recorded as 31.76%; in the assay on MDA-MB-231 [1], 40.55%; in the assay with A549 it was 52.67%.
`Cc1cccc(/C=C/C(=O)Nc2ccc(-c3ccnc(N4CCC(CO)CC4)c3)cn2)c1`: the Activity in the assay on HepG2 was determined as 38.09%; in the assay on MDA-MB-231 [1] it was 38.51%; with A549, 41%.
Consider `O=C(/C=C/c1cccc(F)c1)Nc1cc(-c2ccnc(N3CCC(CO)CC3)c2)ccn1`, for which the IC50 with MDA-MB-231 [3] was 0.044 µM. Besides, the Activity with HepG2 is 46.35%; in the assay on MDA-MB-231 [1], 31.06%; with A549, 55.98%. Further, the inhibition result in assay [2] is “Active”.
As for `Cc1ccc(CC(=O)Nc2ccc(-c3ccnc(N(C)CCO)c3)cn2)cc1`, the Activity with HepG2 worked out at 87.52%; in the assay on MDA-MB-231 [1], 96.17%; in the assay on A549, 100.97%.
On to `Cc1ccc(CC(=O)Nc2ccc(-c3ccnc(N4CCN(C)CC4)c3)cn2)cc1`, for which the Activity was determined as 98.32% in the assay on HepG2, 85.44% in the assay on MDA-MB-231 [1] and 103.32% in the assay with A549. Besides, the inhibition result in assay [2] is “Active”.
For `Cc1ccc(CC(=O)Nc2ccc(-c3ccnc(N4CCC(CO)CC4)c3)cn2)cc1`, the Activity turned out to be 51.27% with HepG2, 54.12% with MDA-MB-231 [1] and 72.28% in the assay on A549. The inhibition entry in assay [2] was “Active”.
As for `Cc1cccc(CC(=O)Nc2ccc(-c3ccnc(N4CCC(CO)CC4)c3)cn2)c1`, the IC50 in the assay on MDA-MB-231 [3] was 2.02 µM. Further, the Activity in assay [4] was < 50%; in the assay on HepG2, 29.6%; with MDA-MB-231 [1], 32.19%; in the assay with A549 it was 63.99%.
On to `Cc1cccc(CC(=O)Nc2ccc(-c3ccnc(N(C)CCO)c3)cn2)c1`, for which the results for the Activity in the assay with HepG2, in the assay on MDA-MB-231 [1] and with A549 were 89.85%, 51.81% and 93.2%, respectively.
Turning to `CC1CCN(c2cc(-c3ccnc(NC(=O)Cc4cccc(F)c4)c3)ccn2)CC1`, the Activity in the assay on HepG2 was found to be 93.8%; in the assay on MDA-MB-231 [1], 91.09%; with A549, 103.8%. Further, the inhibition result in assay [2] is “Active”.
For `Cc1ccc(CC(=O)Nc2ccc(-c3ccnc(N4CCC(C)CC4)c3)cn2)cc1`, in that order: 88.24%, 76.9%, 91.24% and “Active”.
Take `Cc1cccc(CC(=O)Nc2cc(-c3ccnc(N4CCC(C)CC4)c3)ccn2)c1`: the Activity is listed as 106.32% in the assay with HepG2, 93.87% in the assay with MDA-MB-231 [1] and 108.84% with A549. The inhibition result in assay [2] is “Active”.
`CN1CCN(c2cc(-c3ccc(NC(=O)Cc4cccc(F)c4)nc3)ccn2)CC1`: the Activity with HepG2 was determined as 84.3%; with MDA-MB-231 [1], 87.66%; in the assay on A549 it was 113.37%.
`O=C(Cc1cccc(F)c1)Nc1ccc(-c2ccnc(N3CCC(CO)CC3)c2)cn1`: the IC50 in the assay on MDA-MB-231 [3] worked out at 3.5 µM. For the same molecule, the Activity is < 50% in assay [4], 65.95% in the assay with HepG2, 36.36% in the assay with MDA-MB-231 [1] and 58.17% in the assay on A549.
Regarding `CN(CCO)c1cc(-c2ccc(NC(=O)Cc3cccc(F)c3)nc2)ccn1`, the Activity in the assay with HepG2 was found to be 91.54%; in the assay with MDA-MB-231 [1] it was 101.43%; in the assay on A549 it was 92.91%.
In the case of `O=C(CCc1ccccc1)Nc1cc(-c2ccnc(N3CCC(CO)CC3)c2)ccn1`, in the assay on MDA-MB-231 [3], the IC50 was 0.879 µM. The Activity in the assay on HepG2 is listed as 37.04%; with MDA-MB-231 [1] it was 25.7%; in the assay on A549, 62.19%. Further, the inhibition entry in assay [2] was “Active”.
In the case of `COc1cccc(CC(=O)Nc2cc(-c3ccnc(N4CCC(C)CC4)c3)ccn2)c1`, the Activity in the assay on HepG2 is 110.22%; in the assay on MDA-MB-231 [1], 83.56%; in the assay with A549, 114.18%. Besides, the inhibition entry in assay [2] is “Active”.
Regarding `Cc1cccc(/C=C/C(=O)Nc2cc(-c3ccnc(N4CCC(CO)CC4)c3)ccn2)c1`, the IC50 in the assay on MDA-MB-231 [3] came to 2.61 µM. Besides, the Activity with HepG2 was found to be 27.5%; in the assay with MDA-MB-231 [1], 34.47%; in the assay with A549, 53.6%. Also, the inhibition entry in assay [2] was “Active”.
With `COc1cccc(CC(=O)Nc2ccc(-c3ccnc(N(C)CCO)c3)cn2)c1`, the Activity with HepG2 turned out to be 86.14%; in the assay on MDA-MB-231 [1] it was 96.96%; with A549 it was 93.45%.
`Cc1cccc(CC(=O)Nc2ccc(-c3ccnc(N4CCC(C)CC4)c3)cn2)c1`: the IC50 in the assay on MDA-MB-231 [3] is 1.48 µM. The Activity in assay [4] is < 50%; with HepG2, 42.4%; in the assay on MDA-MB-231 [1] it was 44.06%; in the assay on A549 it was 75.58%.
For `CC1CCN(c2cc(-c3ccc(NC(=O)Cc4cccc(F)c4)nc3)ccn2)CC1`, the IC50 in the assay with MDA-MB-231 [3] was 1.46 µM. In addition, the Activity with HepG2 stood at 59.64%; in the assay on MDA-MB-231 [1], 44.58%; in the assay on A549 it was 64.69%. Further, in assay [2], the inhibition result is “Active”.
`COc1cccc(CC(=O)Nc2ccc(-c3ccnc(N4CCN(C)CC4)c3)cn2)c1`: the figures for the Activity in the assay with HepG2, with MDA-MB-231 [1] and with A549 were 85.3%, 99.26% and 103.91%, respectively.
